Structures can show the parent of a compound that is named as a salt. One block for each compound: values may come before it.
What was measured:
[1] = target: VEGFR2 (Homo sapiens, UniProt P35968); assay: VEGFR2 kinase inhibition, whole-cell assay; format: cell-based; settings: read-out: kinase inhibition IC50 [whole-cell assays] VEGFR2
[2] = test system: bovine brain tubulin; assay: inhibition of tubulin assembly; format: biochemical; settings: bovine tubulin
[3] = target: EGFR (Homo sapiens, UniProt P00533); assay: EGFR kinase inhibition, whole-cell assay; format: cell-based; settings: read-out: kinase inhibition IC50 [whole-cell assays] EGFR
EGFR, sequence (P00533 25-1210, species assumed): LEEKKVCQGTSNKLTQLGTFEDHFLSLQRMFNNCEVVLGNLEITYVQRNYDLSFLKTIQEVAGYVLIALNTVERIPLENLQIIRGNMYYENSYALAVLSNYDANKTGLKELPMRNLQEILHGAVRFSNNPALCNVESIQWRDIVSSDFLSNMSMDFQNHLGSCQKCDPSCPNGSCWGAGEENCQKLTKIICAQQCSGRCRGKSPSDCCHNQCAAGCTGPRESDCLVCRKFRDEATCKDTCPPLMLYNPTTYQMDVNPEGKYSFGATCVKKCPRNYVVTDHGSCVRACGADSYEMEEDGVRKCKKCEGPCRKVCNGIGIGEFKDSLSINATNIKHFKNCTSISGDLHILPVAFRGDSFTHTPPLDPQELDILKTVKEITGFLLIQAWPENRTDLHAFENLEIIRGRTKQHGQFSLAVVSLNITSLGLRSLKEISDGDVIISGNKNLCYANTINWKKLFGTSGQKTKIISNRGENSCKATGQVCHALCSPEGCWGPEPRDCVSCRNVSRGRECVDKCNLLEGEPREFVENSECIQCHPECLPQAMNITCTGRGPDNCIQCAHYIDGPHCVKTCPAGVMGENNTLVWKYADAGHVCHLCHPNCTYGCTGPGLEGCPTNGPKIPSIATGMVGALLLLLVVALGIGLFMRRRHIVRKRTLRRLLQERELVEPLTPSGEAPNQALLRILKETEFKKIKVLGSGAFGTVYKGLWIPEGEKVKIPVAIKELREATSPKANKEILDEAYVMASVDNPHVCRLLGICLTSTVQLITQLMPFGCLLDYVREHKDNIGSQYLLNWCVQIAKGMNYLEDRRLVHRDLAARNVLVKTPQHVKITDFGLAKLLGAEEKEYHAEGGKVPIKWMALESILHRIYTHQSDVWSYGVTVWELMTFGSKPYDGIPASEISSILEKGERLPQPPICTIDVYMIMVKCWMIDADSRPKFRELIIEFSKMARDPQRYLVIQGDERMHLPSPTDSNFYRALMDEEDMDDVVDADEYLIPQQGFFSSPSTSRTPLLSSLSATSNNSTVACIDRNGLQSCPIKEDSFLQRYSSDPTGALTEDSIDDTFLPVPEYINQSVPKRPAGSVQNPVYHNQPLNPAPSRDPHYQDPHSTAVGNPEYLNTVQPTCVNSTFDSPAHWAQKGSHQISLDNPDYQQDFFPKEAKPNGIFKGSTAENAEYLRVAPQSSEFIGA

[4] = test system: wild type HeLa cells; assay: HeLa cytotoxicity, wild type; format: cell-based; settings: Homo sapiens
[5] = test system: βIII-tubulin overexpressing HeLa cell line; assay: HeLa cytotoxicity, βIII-tubulin overexpressing; format: cell-based; settings: for IC50: Homo sapiens, βIII-tubulin overexpressing HeLa
[6] = test system: A431 cells; assay: A431 cytotoxicity; format: cell-based; settings: Homo sapiens, A-431
[7] = target: PDGFRβ (Homo sapiens, UniProt P09619); assay: PDGFRβ kinase inhibition, whole-cell assay; format: cell-based
PDGFRβ, sequence (P09619 33-1106, species assumed): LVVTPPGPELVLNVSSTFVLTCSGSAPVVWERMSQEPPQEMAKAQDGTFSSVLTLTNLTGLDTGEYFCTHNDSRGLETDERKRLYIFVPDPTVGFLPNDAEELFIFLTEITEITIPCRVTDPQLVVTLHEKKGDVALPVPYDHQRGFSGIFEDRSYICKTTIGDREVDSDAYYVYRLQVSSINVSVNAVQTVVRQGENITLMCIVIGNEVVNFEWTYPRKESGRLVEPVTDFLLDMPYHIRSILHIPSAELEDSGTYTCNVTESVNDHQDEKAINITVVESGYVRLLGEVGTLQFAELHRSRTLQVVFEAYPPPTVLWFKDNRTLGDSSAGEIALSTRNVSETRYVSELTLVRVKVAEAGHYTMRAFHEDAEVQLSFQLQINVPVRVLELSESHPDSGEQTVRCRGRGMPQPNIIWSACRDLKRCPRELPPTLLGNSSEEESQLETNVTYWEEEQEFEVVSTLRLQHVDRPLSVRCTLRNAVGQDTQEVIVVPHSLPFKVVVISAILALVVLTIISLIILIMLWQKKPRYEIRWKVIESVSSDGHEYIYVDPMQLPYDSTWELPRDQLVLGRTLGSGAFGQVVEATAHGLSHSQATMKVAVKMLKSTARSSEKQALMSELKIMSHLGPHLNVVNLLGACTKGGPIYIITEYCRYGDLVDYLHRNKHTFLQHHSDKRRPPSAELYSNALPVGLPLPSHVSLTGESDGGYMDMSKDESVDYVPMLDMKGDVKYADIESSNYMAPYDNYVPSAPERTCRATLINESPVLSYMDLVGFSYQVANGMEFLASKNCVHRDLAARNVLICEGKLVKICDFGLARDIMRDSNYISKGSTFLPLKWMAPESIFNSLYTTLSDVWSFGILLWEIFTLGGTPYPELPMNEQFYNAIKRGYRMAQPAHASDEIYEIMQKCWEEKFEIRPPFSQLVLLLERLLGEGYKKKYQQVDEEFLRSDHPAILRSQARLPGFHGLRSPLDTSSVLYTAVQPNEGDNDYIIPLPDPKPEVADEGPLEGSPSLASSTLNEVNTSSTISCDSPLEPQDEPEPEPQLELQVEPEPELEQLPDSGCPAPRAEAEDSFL

[8] = MTD in mice; settings: BALB/c, mouse, in vivo, ip
Experimental: (§1) BALB/c mice were implanted with 7.5 k 4T1-Luc2GFP triple negative mouse breast cancer cells orthotopically into mammary fat pad 4. 7 days after implantation, tumors are visible in over 90% of animals. At day 8 and continuing twice weekly until the experiment end, the MTD of compound 4.HCl (i.e. the hydrochloride salt of compound 4 shown in FIG. 1), determined to be 40 mg/kg, was given IP to tumor-bearing mice; […]; Both drugs were in solvent (5% solutol-15, 5% PharmaSolve in normal saline) and a solvent control group was included in addition to sham injected (untreated) group. Primary tumor volume and animal weights was assessed by calipers throughout the experiment.

[9] = test system: 4T1-Luc2GFP triple negative mouse breast cancer cells; format: in vivo
Experimental: as §1
On day 40, all animals were injected IV with fluorescently labeled dextran as a marker of vasculature. Tumors were excised and weighed; lungs were excised and evaluated for metastases. […]; large micro metastases (>10 cells with no vasculature) and macrometastases (>10 cells with apparent vasculature) were counted. […]

VEGFR2, sequence (P35968 20-1356, species assumed): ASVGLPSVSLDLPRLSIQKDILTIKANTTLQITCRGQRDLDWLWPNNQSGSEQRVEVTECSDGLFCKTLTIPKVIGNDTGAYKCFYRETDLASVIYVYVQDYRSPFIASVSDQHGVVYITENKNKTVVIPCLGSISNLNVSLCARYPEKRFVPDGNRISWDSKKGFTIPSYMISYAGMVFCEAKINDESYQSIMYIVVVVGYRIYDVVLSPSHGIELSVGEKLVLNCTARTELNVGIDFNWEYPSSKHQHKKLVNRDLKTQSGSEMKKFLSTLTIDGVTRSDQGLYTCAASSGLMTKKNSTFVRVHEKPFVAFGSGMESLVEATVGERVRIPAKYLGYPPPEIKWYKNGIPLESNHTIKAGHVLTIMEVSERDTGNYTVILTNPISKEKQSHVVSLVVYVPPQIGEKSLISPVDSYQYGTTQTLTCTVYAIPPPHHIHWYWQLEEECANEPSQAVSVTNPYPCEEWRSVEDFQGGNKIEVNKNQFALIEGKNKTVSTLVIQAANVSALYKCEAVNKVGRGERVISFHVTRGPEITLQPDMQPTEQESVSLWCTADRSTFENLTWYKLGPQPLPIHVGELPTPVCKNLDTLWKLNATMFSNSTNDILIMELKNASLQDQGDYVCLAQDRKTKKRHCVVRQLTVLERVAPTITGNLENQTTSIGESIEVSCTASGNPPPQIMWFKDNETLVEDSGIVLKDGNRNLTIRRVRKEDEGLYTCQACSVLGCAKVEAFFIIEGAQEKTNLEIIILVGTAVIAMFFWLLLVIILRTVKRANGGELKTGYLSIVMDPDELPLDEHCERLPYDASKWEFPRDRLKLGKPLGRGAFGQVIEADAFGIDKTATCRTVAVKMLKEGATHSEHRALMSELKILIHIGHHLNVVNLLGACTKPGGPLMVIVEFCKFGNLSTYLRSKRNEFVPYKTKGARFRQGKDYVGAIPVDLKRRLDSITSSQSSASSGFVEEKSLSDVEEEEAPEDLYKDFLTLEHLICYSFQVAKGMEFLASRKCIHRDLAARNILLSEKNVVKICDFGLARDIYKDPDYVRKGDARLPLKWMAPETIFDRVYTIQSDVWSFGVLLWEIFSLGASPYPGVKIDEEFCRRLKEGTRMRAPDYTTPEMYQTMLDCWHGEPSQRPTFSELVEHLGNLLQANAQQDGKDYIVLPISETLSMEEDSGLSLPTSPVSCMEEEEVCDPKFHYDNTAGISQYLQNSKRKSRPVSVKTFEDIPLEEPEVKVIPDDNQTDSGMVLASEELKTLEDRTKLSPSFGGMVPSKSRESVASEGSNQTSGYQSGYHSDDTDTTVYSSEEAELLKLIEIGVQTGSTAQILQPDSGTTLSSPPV

IC50 [1]: 26.7 nM | IC50 [2]: > 20000 nM | IC50 [3]: 2.6 nM | potency against PDGFRβ, in words [7]: potencies comparable with DMBI | IC50 ([7]; whole-cell assay, read-out: kinase inhibition IC50 [whole-cell assays] PDGFRβ): 7.2 ± 0.9 nM
Compound: COc1ccc(Nc2nc(C)nc3c(Cc4ccccc4)cn(C)c23)cc1 [Compound 3, 7-Benzyl-N-(4-methoxyphenyl)-2,5-dimethyl-5H-pyrrolo[3,2-d]pyrimidin-4-amine]
IC50 [4]: 5000 nM | IC50 [5]: 5000 nM | IC50 [6]: 2.3 ± 0.3 nM

Compound: COc1ccc(N(C)c2nc(C)nc3c(Cc4ccccc4)cn(C)c23)cc1 [Compound 4.HCl, 7-Benzyl-N-(4-methoxyphenyl)-N,2,5-trimethyl-5H-pyrrolo[3,2-d]pyrimidin-4-amine]
MTD [8]: 40 mg/kg | 4T1 primary tumor growth (volume) ([9]; 40 mg/kg IP twice weekly from day 8, vs carrier or vs doxorubicin, FIG. 2): significantly reduced 4T1 primary growth | number of lung small micro metastases ([9]; day 40, 1-9 cells without any vasculature, FIG. 5): reduced the number of lung small micro metastases | lung macrometastases ([9]; day 40, >10 cells with apparent vasculature, FIG. 5): none had any lung macrometastases | tumor weight at the end of the experiment ([9]; day 40, FIG. 4): reduced tumor weight | animal weight ([9]; mouse, in vivo): no change in animal weight

Compound: CC(=O)O[C@H]1C(=O)[C@@]2(C)[C@H]([C@H](OC(=O)c3ccccc3)[C@]3(O)C[C@H](OC(=O)[C@H](O)[C@@H](NC(=O)c4ccccc4)c4ccccc4)C(C)=C1C3(C)C)[C@]1(OC(C)=O)CO[C@@H]1C[C@@H]2O [paclitaxel]
IC50 [4]: 5.3 ± 2 nM | fold less potent in βIII-tubulin overexpressing cell line than in wild type HeLa cells [5]: 3 fold | IC50 [5]: 16.1 ± 1 nM

Compound: CC(=O)O[C@@]12CO[C@@H]1C[C@H](O)[C@@]1(C)C(=O)[C@H](O)C3=C(C)[C@@H](OC(=O)[C@H](O)[C@@H](NC(=O)OC(C)(C)C)c4ccccc4)C[C@@](O)([C@@H](OC(=O)c4ccccc4)[C@H]21)C3(C)C [docetaxel]
IC50 [4]: 4 ± 2 nM | fold less potent in βIII-tubulin overexpressing cell line than in wild type HeLa cells [5]: 3 fold | IC50 [5]: 13 ± 4 nM
